Test results published in ChEMBL document CHEMBL5360673, “2B Determined: The Future of the Serotonin Receptor 2B in Drug Discovery” (J Med Chem, 2023).

What was measured:
[1] = biological target: T1, 5-hydroxytryptamine receptor 2B (Homo sapiens, UniProt P41595); test: Agonist activity at 5-HT2B receptor (unknown origin) assessed as stimulation of phospho-inositide hydrolysis by IP hydrolysis assay; format: functional
[2] = biological target: T1, 5-hydroxytryptamine receptor 2B; test: Agonist activity at 5-HT2B receptor (unknown origin) assessed as stimulation of intracellular calcium level by calcium mobilization assay; format: functional, cell-based
[3] = biological target: T1, 5-hydroxytryptamine receptor 2B; test: Agonist activity at 5-HT2B receptor (unknown origin) assessed as stimulation of […] by calcium mobilization assay; format: functional
[4] = biological target: T1, 5-hydroxytryptamine receptor 2B; test: Binding affinity to 5-HT2B receptor (unknown origin)
[5] = Selectivity ratio, […] for 5-HT2B (unknown origin)
Cytochrome P450 1A2 = biological target: T2, Cytochrome P450 1A2 (Homo sapiens, UniProt P05177); test: Inhibition of CYP1A2 (unknown origin); format: ADME
T2 sequence (P05177 whole entry): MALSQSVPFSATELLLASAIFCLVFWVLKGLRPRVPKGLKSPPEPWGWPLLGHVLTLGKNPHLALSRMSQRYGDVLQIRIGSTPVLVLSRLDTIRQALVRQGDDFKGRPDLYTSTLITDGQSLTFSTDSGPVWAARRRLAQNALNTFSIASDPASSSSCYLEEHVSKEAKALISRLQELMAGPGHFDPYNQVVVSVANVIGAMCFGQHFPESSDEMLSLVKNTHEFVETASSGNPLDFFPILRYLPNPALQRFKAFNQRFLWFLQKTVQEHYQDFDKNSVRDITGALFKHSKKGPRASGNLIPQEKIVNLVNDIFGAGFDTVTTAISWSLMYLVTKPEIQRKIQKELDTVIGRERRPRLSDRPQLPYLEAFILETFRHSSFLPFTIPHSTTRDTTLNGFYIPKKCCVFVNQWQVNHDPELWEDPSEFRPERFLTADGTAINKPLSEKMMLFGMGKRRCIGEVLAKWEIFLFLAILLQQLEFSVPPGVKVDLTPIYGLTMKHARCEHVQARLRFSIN

Cytochrome P450 2C9 = Cytochrome P450 2C9 (Homo sapiens, UniProt P11712); test: Inhibition of CYP2C9 (unknown origin); format: ADME
Cytochrome P450 2D6 = Cytochrome P450 2D6 (Homo sapiens, UniProt P10635); test: Inhibition of CYP2D6 (unknown origin); format: ADME
Cytochrome P450 3A4 = Cytochrome P450 3A4 (Homo sapiens, UniProt P08684); test: Inhibition of CYP3A4 (unknown origin); format: ADME
[6] = Ratio of drug concentration in brain to plasma of C57BL/6 mouse administered intraperitoneally and measured for 0.25 to 24 hrs; format: ADME; details: time 0.25-24 hrs, route ip, read-out: BPR
[7] = Half life in ip dosed C57BL/6 mouse; format: ADME, organism-based; details: in vivo
[8] = Cmax in ip dosed C57BL/6 mouse; format: ADME, organism-based; design: route ip; details: in vivo
[9] = biological target: T1, 5-hydroxytryptamine receptor 2B; test: Displacement of [3H]-LSD from human 5-HT2B receptor assessed as inhibition constant

T1 sequence (P41595 whole entry): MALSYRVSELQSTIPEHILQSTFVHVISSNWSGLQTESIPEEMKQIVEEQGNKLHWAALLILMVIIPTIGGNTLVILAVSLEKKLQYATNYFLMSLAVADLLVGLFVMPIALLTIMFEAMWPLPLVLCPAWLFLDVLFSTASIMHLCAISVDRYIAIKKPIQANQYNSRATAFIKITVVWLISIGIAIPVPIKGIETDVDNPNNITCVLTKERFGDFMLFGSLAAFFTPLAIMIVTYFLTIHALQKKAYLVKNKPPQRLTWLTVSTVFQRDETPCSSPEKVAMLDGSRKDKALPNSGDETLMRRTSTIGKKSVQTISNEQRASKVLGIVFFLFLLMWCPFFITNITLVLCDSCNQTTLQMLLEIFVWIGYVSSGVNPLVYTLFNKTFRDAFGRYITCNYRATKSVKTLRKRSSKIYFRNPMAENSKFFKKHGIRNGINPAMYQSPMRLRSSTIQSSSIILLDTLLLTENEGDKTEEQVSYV
Cytochrome P450 3A4, sequence (P08684 whole entry): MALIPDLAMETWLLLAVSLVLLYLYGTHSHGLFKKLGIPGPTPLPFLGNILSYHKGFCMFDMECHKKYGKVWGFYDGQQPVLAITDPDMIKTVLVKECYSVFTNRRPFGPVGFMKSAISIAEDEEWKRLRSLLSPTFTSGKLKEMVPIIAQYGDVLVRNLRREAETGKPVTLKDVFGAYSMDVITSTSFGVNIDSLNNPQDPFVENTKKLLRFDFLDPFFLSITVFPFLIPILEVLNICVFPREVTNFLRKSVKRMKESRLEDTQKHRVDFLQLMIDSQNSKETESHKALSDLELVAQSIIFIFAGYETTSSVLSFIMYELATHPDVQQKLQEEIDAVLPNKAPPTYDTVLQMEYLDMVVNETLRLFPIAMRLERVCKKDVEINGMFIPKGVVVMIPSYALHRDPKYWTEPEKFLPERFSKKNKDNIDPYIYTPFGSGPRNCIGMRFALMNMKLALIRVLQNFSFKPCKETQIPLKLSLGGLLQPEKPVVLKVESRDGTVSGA
Cytochrome P450 2D6, sequence (P10635 whole entry): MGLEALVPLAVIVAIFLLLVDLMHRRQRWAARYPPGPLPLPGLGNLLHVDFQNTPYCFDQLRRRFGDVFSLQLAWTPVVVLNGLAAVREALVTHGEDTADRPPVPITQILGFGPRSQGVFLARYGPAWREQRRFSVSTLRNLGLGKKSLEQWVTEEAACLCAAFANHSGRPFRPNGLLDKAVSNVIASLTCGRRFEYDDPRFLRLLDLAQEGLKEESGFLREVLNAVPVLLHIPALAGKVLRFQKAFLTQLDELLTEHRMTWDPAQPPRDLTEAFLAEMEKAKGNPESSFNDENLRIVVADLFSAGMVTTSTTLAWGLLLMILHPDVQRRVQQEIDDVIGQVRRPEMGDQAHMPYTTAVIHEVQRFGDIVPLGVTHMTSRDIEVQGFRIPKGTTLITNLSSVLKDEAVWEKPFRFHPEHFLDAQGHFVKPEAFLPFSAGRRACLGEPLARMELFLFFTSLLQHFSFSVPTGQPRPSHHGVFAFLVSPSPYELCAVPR
Cytochrome P450 2C9, sequence (P11712 whole entry): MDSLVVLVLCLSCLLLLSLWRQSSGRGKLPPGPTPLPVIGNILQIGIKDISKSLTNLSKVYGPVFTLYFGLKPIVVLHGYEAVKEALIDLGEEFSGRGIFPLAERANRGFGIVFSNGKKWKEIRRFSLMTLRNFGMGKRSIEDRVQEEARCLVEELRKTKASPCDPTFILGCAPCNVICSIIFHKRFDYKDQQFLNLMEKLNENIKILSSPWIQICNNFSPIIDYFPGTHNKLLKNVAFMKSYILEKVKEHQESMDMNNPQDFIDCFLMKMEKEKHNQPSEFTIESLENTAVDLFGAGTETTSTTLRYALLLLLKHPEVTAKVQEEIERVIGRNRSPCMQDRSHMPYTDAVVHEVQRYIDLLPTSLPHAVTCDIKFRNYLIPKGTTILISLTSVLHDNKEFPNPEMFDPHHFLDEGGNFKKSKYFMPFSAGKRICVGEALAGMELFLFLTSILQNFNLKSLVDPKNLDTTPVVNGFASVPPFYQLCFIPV

Compound: C[C@H](N)Cc1cccc(C(F)(F)F)c1 [NORDEXFENFLURAMINE]
- EC50 [1]: 0.023 µM
- EC50 [2]: 0.023 µM
- EC50 [3]: 0.023 µM

Compound: Cc1cc(NC(=O)Nc2ccc3c(ccn3C)c2)sn1
- Ki [4]: 0.0112 µM
- Selectivity ratio [5]: > 135

Compound: Cn1ccc2cc(-n3c(=O)[nH]c4sc5c(c4c3=O)CCCC5)ccc21
- IC50 (Cytochrome P450 1A2): > 30 µM
- IC50 (Cytochrome P450 2C9): > 30 µM
- IC50 (Cytochrome P450 2D6): > 30 µM
- IC50 (Cytochrome P450 3A4): > 30 µM
- Kp [6]: 0.01
- half-life [7]: 42 min
- Cmax [8]: 43 µg/mL

Compound: O=C1[C@@H]2[C@@H]3C[C@@H](C[C@H]3O)[C@@H]2C(=O)N1C[C@@H]1CCCC[C@H]1CN1CCN(c2nsc3ccccc23)CC1
- Ki [9]: 0.024 µM
